Assay results published in US6528504B2, “Oxazepine derivatives and medicine containing the same” (Ajinomoto Co., Inc., priority 1999, dated 2003).
Where a name gives a salt, the structure may show the parent alone.

Legend:
calcium channel (ileum) = calcium channel (ileum) (Rattus norvegicus, UniProt P22002); assay: In vitro calcium channel antagonistic effect (ileum): inhibition of high potassium contraction of ileum samples; conditions: high potassium (45.0 mM KCl) contraction, 10^−7 M test compound, 30 minute pretreatment, read-out: Inhibition rate (%) (conc.: 10^−7M)
Chain of calcium channel (ileum) (P22002 whole entry): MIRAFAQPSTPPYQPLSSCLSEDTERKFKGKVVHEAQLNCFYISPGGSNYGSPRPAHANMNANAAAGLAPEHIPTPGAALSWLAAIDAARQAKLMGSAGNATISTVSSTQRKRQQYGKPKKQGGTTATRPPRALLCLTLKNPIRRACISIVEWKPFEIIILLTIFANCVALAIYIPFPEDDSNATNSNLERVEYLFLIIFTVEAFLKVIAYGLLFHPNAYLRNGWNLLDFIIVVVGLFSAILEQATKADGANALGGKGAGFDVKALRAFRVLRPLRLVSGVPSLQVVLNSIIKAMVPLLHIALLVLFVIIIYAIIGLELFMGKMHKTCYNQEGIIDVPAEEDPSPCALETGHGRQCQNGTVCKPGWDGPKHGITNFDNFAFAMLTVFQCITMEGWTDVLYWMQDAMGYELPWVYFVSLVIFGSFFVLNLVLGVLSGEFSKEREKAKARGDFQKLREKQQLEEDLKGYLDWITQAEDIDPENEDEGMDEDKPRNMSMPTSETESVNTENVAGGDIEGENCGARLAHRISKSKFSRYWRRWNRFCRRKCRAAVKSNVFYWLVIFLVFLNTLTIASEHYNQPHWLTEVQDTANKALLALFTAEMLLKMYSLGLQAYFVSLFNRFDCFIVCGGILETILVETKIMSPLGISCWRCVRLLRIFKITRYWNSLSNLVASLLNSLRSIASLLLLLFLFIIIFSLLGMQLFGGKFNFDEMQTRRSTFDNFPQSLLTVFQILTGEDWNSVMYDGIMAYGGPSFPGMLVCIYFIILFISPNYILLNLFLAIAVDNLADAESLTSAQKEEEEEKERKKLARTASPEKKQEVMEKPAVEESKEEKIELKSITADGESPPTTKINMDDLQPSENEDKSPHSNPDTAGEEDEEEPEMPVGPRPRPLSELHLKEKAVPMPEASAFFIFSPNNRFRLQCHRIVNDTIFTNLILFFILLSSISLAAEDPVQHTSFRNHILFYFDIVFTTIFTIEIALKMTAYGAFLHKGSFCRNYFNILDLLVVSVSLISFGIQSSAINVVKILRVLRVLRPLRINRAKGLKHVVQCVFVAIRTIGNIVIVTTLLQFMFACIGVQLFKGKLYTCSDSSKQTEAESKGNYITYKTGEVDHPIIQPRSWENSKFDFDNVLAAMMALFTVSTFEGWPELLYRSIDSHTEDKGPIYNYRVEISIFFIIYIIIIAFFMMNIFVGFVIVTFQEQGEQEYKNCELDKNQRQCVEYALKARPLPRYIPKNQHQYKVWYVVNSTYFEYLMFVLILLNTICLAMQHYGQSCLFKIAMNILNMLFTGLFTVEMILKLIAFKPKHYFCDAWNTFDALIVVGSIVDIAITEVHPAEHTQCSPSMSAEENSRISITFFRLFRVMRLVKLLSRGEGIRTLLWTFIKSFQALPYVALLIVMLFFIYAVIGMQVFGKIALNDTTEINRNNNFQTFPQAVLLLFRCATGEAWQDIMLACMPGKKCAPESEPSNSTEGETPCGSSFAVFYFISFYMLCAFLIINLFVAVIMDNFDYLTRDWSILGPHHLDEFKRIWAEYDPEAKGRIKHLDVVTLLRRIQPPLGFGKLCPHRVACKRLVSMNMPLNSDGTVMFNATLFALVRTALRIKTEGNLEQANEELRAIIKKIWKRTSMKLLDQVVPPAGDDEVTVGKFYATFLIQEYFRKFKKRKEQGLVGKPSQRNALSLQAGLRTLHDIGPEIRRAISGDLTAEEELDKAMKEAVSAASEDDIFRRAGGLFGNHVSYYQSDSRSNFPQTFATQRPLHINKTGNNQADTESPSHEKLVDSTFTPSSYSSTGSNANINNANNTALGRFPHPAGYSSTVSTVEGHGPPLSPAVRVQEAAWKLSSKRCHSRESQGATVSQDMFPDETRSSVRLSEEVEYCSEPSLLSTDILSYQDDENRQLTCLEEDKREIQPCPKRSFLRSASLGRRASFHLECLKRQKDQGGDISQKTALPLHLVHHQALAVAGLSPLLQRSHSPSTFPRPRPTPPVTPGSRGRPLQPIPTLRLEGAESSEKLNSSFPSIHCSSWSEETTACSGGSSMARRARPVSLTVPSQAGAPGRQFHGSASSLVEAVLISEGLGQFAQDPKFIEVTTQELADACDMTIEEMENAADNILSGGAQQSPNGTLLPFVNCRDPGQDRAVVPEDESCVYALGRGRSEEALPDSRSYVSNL
Protocol: In vitro calcium channel antagonistic effect (ileum)
(§1) The ileum of each of male Crj:CD rats (8 to 12 weeks old) was extracted at a part 3 cm apart from the ileocecal region. The ileum sample was suspended in 37° C. Tyrode's solution through which a gaseous mixture (95% of oxygen and 5% of carbon dioxide) was passed. For examining the change in tensile strength of the ileum, the isotonicity thereof was recorded on a pen-writing recorder through a transducer. The high potassium contraction was caused by exchanging the nutrient solution from Tyrode's solution to potassium-Tyrode's solution (94.6 mM of NaCl, 45.0 mM of KCl, 1.8 mM of CaCl2, 1.04 mM of MgCl2, 0.4 mM of NaH2PO4, 11.9 mM of NaHCO3 and 5.55 mM of glucose). The high potassium contraction-inhibiting effect of a test compound was evaluated by 30 minute pretreatment. Compound A described in European Patent No. 0404359A1 and compound B described in International Patent No. 9733885A1 were used as comparative substances. The calcium channel antagonistic activity was shown as the rate (%) of inhibition of control of high-calcium contraction with 10^−7 M test compound.

[1] = molecular target: calcium channel (blood vessel, thoracic aorta) (Rattus norvegicus, UniProt P22002); assay: In vitro calcium channel antagonistic effect (blood vessel): inhibition of high potassium contraction of helical thoracic aorta samples; conditions: high potassium (45.0 mM KCl) contraction, 10^−7 M test compound, 30 minute pretreatment, read-out: Inhibition rate (%) (conc: 10^−7 M)
Chain of calcium channel (blood vessel, thoracic aorta) (P22002 whole entry): as above
Protocol: In vitro calcium channel antagonistic effect (blood vessel)
as §1, with “thoracic aorta was extracted from” for “ileum of”, “to prepare helical samples.” for “was extracted at a part 3 cm apart from the ileocecal region.”, “blood vessel samples were” for “ileum sample was”, “blood vessel,” for “ileum,”, “isometry” for “isotonicity”

In the case of `COc1ccc(CCN2CCCC2CN2c3ccccc3CSc3ccccc32)cc1` (centres unmarked) [Compound A, reference compound], the inhibition at 0.1 µM (calcium channel (ileum)) is reported as 48% and the inhibition at 0.1 µM [1] is reported as 9%.

With `COc1ccc(CCN2CCC[C@@H]2CN2c3ccccc3COc3ccccc32)cc1` [Compound B, reference compound] the inhibition at 0.1 µM (calcium channel (ileum)) was 67% and the inhibition at 0.1 µM [1] was 17%.

`COc1ccc(CCN2CCCC[C@@H]2CN2c3ccccc3COc3ccccc32)cc1.Cl` [Example 1, (R)-5,11-Dihydro-5-[1-(4-methoxyphenethyl)piperidine-2-ylmethyl]dibenzo[b,e][1,4]oxazepine Hydrochloride] showed an inhibition at 0.1 µM (calcium channel (ileum)) of 90%, an inhibition at 0.1 µM [1] of 38% and a melting point of 199 to 201 °C.

`COc1cccc(CCN2CCCC[C@@H]2CN2c3ccccc3COc3ccccc32)c1` [Example 3, (R)-5,11-Dihydro-5-[1-(3-methoxyphenethyl)piperidine-2-ylmethyl] dibenzo[b,e][1,4]oxazepine Hydrochloride] showed an inhibition at 0.1 µM (calcium channel (ileum)) of 61% and an inhibition at 0.1 µM [1] of 33%.

In the case of `COc1ccc(CCCN2CCCC[C@@H]2CN2c3ccccc3COc3ccccc32)cc1` [Example 4, (R)-5,11-Dihydro-5-[1-[3-(4-methoxyphenyl)propyl]piperidine-2-ylmethyl]dibenzo[b,e][1,4]oxazepine Hydrochloride], the inhibition at 0.1 µM (calcium channel (ileum)) is reported as 64% and the inhibition at 0.1 µM [1] is reported as 32%.

Compound `c1ccc2c(c1)COc1ccccc1N2C[C@H]1CCCCN1CCc1ccc2c(c1)OCO2` [Example 5, (R)-5,11-Dihydro-5-[1-(3,4-methylenedioxyphenethyl)piperidine-2-yl-methyl] dibenzo[b,e][1,4]oxazepine Hydrochloride] has an inhibition at 0.1 µM (calcium channel (ileum)) of 66% and an inhibition at 0.1 µM [1] of 27%.

In the case of `Clc1ccc(CCN2CCCC[C@@H]2CN2c3ccccc3COc3ccccc32)cc1` [Example 6, (R)-5-[1-(4-chlorophenethyl)piperidine-2-ylmethyl]-5,11-dihydrodibenzo [b,e][1,4]oxazepine Hydrochloride], the inhibition at 0.1 µM (calcium channel (ileum)) is reported as 75% and the inhibition at 0.1 µM [1] is reported as 25%.

`CN(C)c1ccc(CCN2CCCC[C@@H]2CN2c3ccccc3COc3ccccc32)cc1` [Example 7, (R)-5,11-Dihydro-5-[1-(4-dimethylaminophenethyl)piperidine-2-ylmethyl]dibenzo[b,e][1,4]oxazepine Dihydrochloride] gave an inhibition at 0.1 µM (calcium channel (ileum)) of 78% and an inhibition at 0.1 µM [1] of 23%.

For `COc1ccc(CCN2CC[C@@H](N3c4ccccc4COc4ccccc43)C2)cc1.Cl` [Example 8, (R)-5,11-Dihydro-5-[1-(4-methoxyphenethyl)pyrrolidine-3-yl] dibenzo[b,e][1,4]oxazepine Hydrochloride], the inhibition at 0.1 µM (calcium channel (ileum)) was 100%, the inhibition at 0.1 µM [1] was 52% and the melting point was 224 to 226 °C.

Compound `CN(C)c1ccc(CCN2CC[C@@H](N3c4ccccc4COc4ccccc43)C2)cc1.Cl` [Example 10, (R)-5,11-Dihydro-5-[1-(4-dimethylaminophenethyl)pyrrolidine-3-yl]dibenzo[b,e][1,4]oxazepine Hydrochloride] has an inhibition at 0.1 µM (calcium channel (ileum)) of 116%, an inhibition at 0.1 µM [1] of 59% and a melting point of 219 to 220 °C.

With `COc1ccc(CCCN2CC[C@@H](N3c4ccccc4COc4ccccc43)C2)cc1` [Example 11, (R)-5,11-Dihydro-5-[1-[3-(4-methoxyphenyl)propyl]pyrrolidine-3-yl]dibenzo[b,e][1,4]oxazepine Hydrochloride] the inhibition at 0.1 µM (calcium channel (ileum)) was 83% and the inhibition at 0.1 µM [1] was 61%.

Work on `c1ccc2c(c1)COc1ccccc1N2[C@@H]1CCN(CCc2ccc3c(c2)OCO3)C1` [Example 12, (R)-5,11-Dihydro-5-[1-(3,4-methylenedioxyphenethyl)pyrrolidine-3-yl]dibenzo[b,e][1,4]oxazepine Hydrochloride] yielded an inhibition at 0.1 µM (calcium channel (ileum)) of 77% and an inhibition at 0.1 µM [1] of 51%.

Work on `Clc1ccc(CCN2CC[C@@H](N3c4ccccc4COc4ccccc43)C2)cc1` [Example 13, (R)-5-[1-(4-chlorophenethyl)pyrrolidine-3-yl]-5,11-dihydrodibenzo[b,e][1,4] oxazepine Hydrochloride] yielded an inhibition at 0.1 µM (calcium channel (ileum)) of 76% and an inhibition at 0.1 µM [1] of 38%.

With `COc1ccc(CCN(C)CCN2c3ccccc3COc3ccccc32)cc1.Cl` [Example 14, 5,11-Dihydro-5-[2-[N-(4-methoxyphenethyl)-N-methylamino]ethyl]dibenzo[b,e][1,4]oxazepine Hydrochloride] the inhibition at 0.1 µM (calcium channel (ileum)) was 105%, the inhibition at 0.1 µM [1] was 43% and the melting point was 139 to 140 °C.

With `COc1cccc(CCN(C)CCN2c3ccccc3COc3ccccc32)c1` [Example 15, 5,11-Dihydro-5-[2-[N-(3-methoxyphenethyl)-N-methylamino]ethyl]dibenzo[b,e][1,4]oxazepine Hydrochloride] the inhibition at 0.1 µM (calcium channel (ileum)) was 82% and the inhibition at 0.1 µM [1] was 29%.

With `COc1ccc(CCCN(C)CCN2c3ccccc3COc3ccccc32)cc1` [Example 16, 5,11-Dihydro-5-[2-[N -[3-(4-methoxyphenyl)propyl]-N-methylamino]ethyl]dibenzo[b,e][1,4]oxazepine Hydrochloride] the inhibition at 0.1 µM (calcium channel (ileum)) was 82% and the inhibition at 0.1 µM [1] was 28%.

Work on `CN(CCc1ccc2c(c1)OCO2)CCN1c2ccccc2COc2ccccc21` [Example 17, 5,11-Dihydro-5-[2-[N-methyl-N-(3,4-methylenedioxyphenethyl)amino]ethyl]dibenzo[b,e][1,4]oxazepine Hydrochloride] yielded an inhibition at 0.1 µM (calcium channel (ileum)) of 78% and an inhibition at 0.1 µM [1] of 30%.

`CN(CCc1ccc(Cl)cc1)CCN1c2ccccc2COc2ccccc21` [Example 18, 5-[2-[N-(4-chlorophenethyl)-N-methylamino]ethyl]-5,11-dihydrodibenzo [b,e][1,4]oxazepine Hydrochloride] gave an inhibition at 0.1 µM (calcium channel (ileum)) of 70% and an inhibition at 0.1 µM [1] of 34%.

With `CN(CCc1ccc(N(C)C)cc1)CCN1c2ccccc2COc2ccccc21` [Example 19, 5,11-Dihydro-5-[2-[N-(4-dimethylaminophenethyl)-N-methylamino]ethyl]dibenzo[b,e][1,4]oxazepine Dihydrochloride] the inhibition at 0.1 µM (calcium channel (ileum)) was 76% and the inhibition at 0.1 µM [1] was 39%.

For `CN(CCc1cccc(N(C)C)c1)CCN1c2ccccc2COc2ccccc21` [Example 20, 5,11-Dihydro-5-[2-[N-(3-dimethylaminophenethyl)-N-methylamino]ethyl]dibenzo[b,e][1,4]oxazepine Dihydrochloride], the inhibition at 0.1 µM (calcium channel (ileum)) was 50% and the inhibition at 0.1 µM [1] was 28%.
